Measured values as given in ChEMBL document CHEMBL3044572, “Discovery of 2-(4-cyano-3-trifluoromethylphenyl amino)-4-(4-quinazolinyloxy)-6-piperazinyl(piperidinyl)-s-triazines as potential antibacterial agents” (2012).
≈ marks a conversion by molar mass, not a printed value. Calls of active or inactive are those of the source. No cut-off for these calls is given here.

Tests used:
[1] = test system: Mycobacterium tuberculosis; test: Antimicrobial activity against Mycobacterium tuberculosis H37Rv by BACTEC MGIT method; type: functional; conditions: for MIC: Mycobacterium tuberculosis, H37Rv
[2] = test system: Candida albicans; test: Antimicrobial activity against Candida albicans MTCC 183 by agar streak dilution method; type: functional
[3] = test system: Aspergillus clavatus; test: Antimicrobial activity against Aspergillus clavatus MTCC 1323 by paper disk diffusion method; type: functional
[4] = test system: Aspergillus niger; test: Antimicrobial activity against Aspergillus niger MTCC 282 by paper-disk diffusion method; type: functional
[5] = test system: Aspergillus fumigatus; test: Antimicrobial activity against Aspergillus fumigatus MTCC 343 by paper-disk diffusion method; type: functional
[6] = test system: Pseudomonas aeruginosa; test: Antimicrobial activity against Pseudomonas aeruginosa MTCC 741 at 100 ug/ml by paper disk diffusion method; type: functional, organism-based
[7] = test system: Shigella flexneri; test: Antimicrobial activity against Shigella flexneri MTCC 1457 by paper disk diffusion method; type: functional
[8] = test system: Proteus vulgaris; test: Antimicrobial activity against Proteus vulgaris MTCC 1771 by paper disk diffusion method; type: functional
[9] = test system: Salmonella typhi; test: Antimicrobial activity against Salmonella enterica subsp. enterica serovar Typhi MTCC 733 by paper disk diffusion method; type: functional
[10] = test system: Klebsiella pneumoniae; test: Antimicrobial activity against Klebsiella pneumoniae MTCC 109 by paper disk diffusion method; type: functional
[11] = test system: Pseudomonas aeruginosa; test: Antimicrobial activity against Pseudomonas aeruginosa MTCC 741 by paper disk diffusion method; type: functional
[12] = test system: Bacillus cereus; test: Antimicrobial activity against Bacillus cereus MTCC 619 by paper disk diffusion method; type: functional
[13] = test system: Escherichia coli; test: Antimicrobial activity against Escherichia coli MTCC 739 by paper disk diffusion method; type: functional
[14] = test system: Staphylococcus aureus; test: Antimicrobial activity against Staphylococcus aureus MTCC 96 by paper-disk diffusion method; type: functional
[15] = test system: Aspergillus clavatus; test: Antimicrobial activity against Aspergillus clavatus MTCC 1323 by agar streak dilution method; type: functional
[16] = test system: Aspergillus fumigatus; test: Antimicrobial activity against Aspergillus fumigatus MTCC 343 by agar streak dilution method; type: functional
[17] = test system: Aspergillus niger; test: Antimicrobial activity against Aspergillus niger MTCC 282 by agar streak dilution method; type: functional
[18] = test system: Proteus vulgaris; test: Antimicrobial activity against Proteus vulgaris MTCC 1771 by agar streak dilution method; type: functional
[19] = test system: Shigella flexneri; test: Antimicrobial activity against Shigella flexneri MTCC 1457 by agar streak dilution method; type: functional
[20] = test system: Klebsiella pneumoniae; test: Antimicrobial activity against Klebsiella pneumoniae MTCC 109 by agar streak dilution method; type: functional
[21] = test system: Salmonella typhi; test: Antimicrobial activity against Salmonella enterica subsp. enterica serovar Typhi MTCC 733 by agar streak dilution method; type: functional
[22] = test system: Pseudomonas aeruginosa; test: Antimicrobial activity against Pseudomonas aeruginosa MTCC 741 by agar streak dilution method; type: functional
[23] = test system: Staphylococcus aureus; test: Antimicrobial activity against Staphylococcus aureus MTCC 96 by agar streak dilution method; type: functional
[24] = test system: Bacillus cereus; test: Antimicrobial activity against Bacillus cereus MTCC 619 by agar streak dilution method; type: functional
[25] = test system: Mycobacterium tuberculosis; test: Antimicrobial activity against Mycobacterium tuberculosis H37Rv at 100 ug/ml by BACTEC MGIT method; type: functional, organism-based
[26] = test system: Escherichia coli; test: Antimicrobial activity against Escherichia coli MTCC 739 by agar streak dilution method; type: functional
[27] = test system: Mycobacterium tuberculosis; test: Antimicrobial activity against Mycobacterium tuberculosis H37Rv by Lowenstein and Jensen method; type: functional; conditions: for MIC: Mycobacterium tuberculosis, H37Rv
[28] = test system: Candida albicans; test: Antimicrobial activity against Candida albicans MTCC 183 by paper-disk diffusion method; type: functional

Row | Compound | inhibition (INH) [1] [%] | MIC [1] [µg/mL] | MIC [2] [µg/mL] | inhibition zone (IZ) [3] [mm] | inhibition zone (IZ) [4] [mm] | inhibition zone (IZ) [5] [mm] | inhibition zone (IZ) [6] | inhibition zone (IZ) [7] [mm] | inhibition zone (IZ) [8] [mm] | inhibition zone (IZ) [9] [mm] | inhibition zone (IZ) [10] [mm] | inhibition zone (IZ) [11] [mm] | inhibition zone (IZ) [12] [mm] | inhibition zone (IZ) [13] [mm] | inhibition zone (IZ) [14] [mm] | MIC [15] [µg/mL] | MIC [16] [µg/mL] | MIC [17] [µg/mL] | MIC [18] [µg/mL] | MIC [19] [µg/mL] | further results
1 | CO[C@H]1/C=C/O[C@@]2(C)Oc3c(C)c(O)c4c(O)c(c(/C=N/N5CCN(C)CC5)c(O)c4c3C2=O)NC(=O)/C(C)=C\C=C\[C@H](C)[C@H](O)[C@@H](C)[C@@H](O)[C@@H](C)[C@H](OC(C)=O)[C@@H]1C [RIFAMPIN] | 99 | 0.25 (≈ 0.304 µM) |  |  |  |  |  |  |  |  |  |  |  |  |  |  |  |  |  |  | 
2 | N#Cc1ccc(Nc2nc(Oc3ncnc4ccccc34)nc(N3CCN(c4ccccc4F)CC3)n2)cc1C(F)(F)F |  | > 6.25 | 12.5 (≈ 21.3 µM) | 24 | 26 | 22 | inactive | 25 | 23 | 26 | 24 | 25 | 26 | 24 | 27 | 25 (≈ 42.6 µM) | 25 (≈ 42.6 µM) | 3.12 (≈ 5.31 µM) | 25 (≈ 42.6 µM) | 25 (≈ 42.6 µM) | MIC [20]: 25 µg/mL (≈ 42.6 µM); MIC [21]: 12.5 µg/mL (≈ 21.3 µM); MIC [22]: 25 µg/mL (≈ 42.6 µM); MIC [23]: 6.25 µg/mL (≈ 10.6 µM); MIC [24]: 6.25 µg/mL (≈ 10.6 µM); inhibition [25]: inactive; MIC [26]: 50 µg/mL (≈ 85.1 µM); inhibition (percent inhibition) [27]: 98%; MIC [27]: 12.5 µg/mL (≈ 21.3 µM); inhibition zone (IZ) [28]: 26 mm
3 | CC[C@@H](CO)NCCN[C@@H](CC)CO [ETHAMBUTOL] | 99 | 3.12 (≈ 15.3 µM) |  |  |  |  |  |  |  |  |  |  |  |  |  |  |  |  |  |  | 
4 | CC1CC(C)CN(c2nc(Nc3ccc(C#N)c(C(F)(F)F)c3)nc(Oc3ncnc4ccccc34)n2)C1 (stereo not given) | 99 | 6.25 (≈ 12 µM) | 25 (≈ 48 µM) | 25 | 22 | 23 | inactive | 22 | 26 | 26 | 26 | 27 | 26 | 27 | 27 | 6.25 (≈ 12 µM) | 25 (≈ 48 µM) | 25 (≈ 48 µM) | 6.25 (≈ 12 µM) | 100 (≈ 192 µM) | MIC [20]: 6.25 µg/mL (≈ 12 µM); MIC [21]: 25 µg/mL (≈ 48 µM); MIC [22]: 12.5 µg/mL (≈ 24 µM); MIC [23]: 6.25 µg/mL (≈ 12 µM); MIC [24]: 12.5 µg/mL (≈ 24 µM); MIC [26]: 6.25 µg/mL (≈ 12 µM); inhibition (percent inhibition) [27]: 99%; MIC [27]: 6.25 µg/mL (≈ 12 µM); inhibition zone (IZ) [28]: 24 mm
5 | CC(=O)N1CCN(c2nc(Nc3ccc(C#N)c(C(F)(F)F)c3)nc(Oc3ncnc4ccccc34)n2)CC1 |  | > 6.25 | 50 (≈ 93.4 µM) | 24 | 24 | 24 | inactive | 22 | 25 | 24 | 25 | 27 | 26 | 28 | 27 | 12.5 (≈ 23.3 µM) | 25 (≈ 46.7 µM) | 25 (≈ 46.7 µM) | 12.5 (≈ 23.3 µM) | 100 (≈ 187 µM) | MIC [20]: 12.5 µg/mL (≈ 23.3 µM); MIC [21]: 25 µg/mL (≈ 46.7 µM); MIC [22]: 12.5 µg/mL (≈ 23.3 µM); MIC [23]: 12.5 µg/mL (≈ 23.3 µM); MIC [24]: 6.25 µg/mL (≈ 11.7 µM); inhibition [25]: inactive; MIC [26]: 6.25 µg/mL (≈ 11.7 µM); inhibition (percent inhibition) [27]: 96%; MIC [27]: 12.5 µg/mL (≈ 23.3 µM); inhibition zone (IZ) [28]: 24 mm
6 | N#Cc1ccc(Nc2nc(Oc3ncnc4ccccc34)nc(N3CCN(c4cccc(C(F)(F)F)c4)CC3)n2)cc1C(F)(F)F | 99 | 6.25 (≈ 9.8 µM) | 6.25 (≈ 9.8 µM) | 25 | 26 | 24 | inactive | 27 | 26 | 25 | 25 | 28 | 28 | 25 | 29 | 6.25 (≈ 9.8 µM) | 12.5 (≈ 19.6 µM) | 3.12 (≈ 4.89 µM) | 6.25 (≈ 9.8 µM) | 12.5 (≈ 19.6 µM) | MIC [20]: 6.25 µg/mL (≈ 9.8 µM); MIC [21]: 25 µg/mL (≈ 39.2 µM); MIC [22]: 6.25 µg/mL (≈ 9.8 µM); MIC [23]: 3.12 µg/mL (≈ 4.89 µM); MIC [24]: 3.12 µg/mL (≈ 4.89 µM); MIC [26]: 25 µg/mL (≈ 39.2 µM); inhibition (percent inhibition) [27]: 99%; MIC [27]: 6.25 µg/mL (≈ 9.8 µM); inhibition zone (IZ) [28]: 27 mm
